Data published in ChEMBL document CHEMBL3885861, “Open TG-GATES”.

Species on record: Rattus norvegicus
Assay: Open TG-GATES - Regimen: Single
Assay type: toxicity, organism-based, Sprague-Dawley
Set-up: regimen Single, gender Male, age 6 weeks
Conditions: in vivo, po, 5 mg/kg, route gavage, dose level Low; for APTT / Bas / Eos / Fbg / Hb / Ht / Lym / MCH / MCHC / MCV / Mono / Neu / PT / Plat / RBC / Ret / WBC: tissue Blood; for LIVER: tissue Liver; for A/G / ALP / ALT / AST / BUN / CRE / Ca / Cl / DBIL / GLC / IP / K / LDH / Na / PL / RALB / TBIL / TC / TG / TP / gamma-GTP: tissue Plasma

In the case of `C=C(C)[C@H]1Cc2c(ccc3c2O[C@@H]2COc4cc(OC)c(OC)cc4[C@@H]2C3=O)O1` [ROTENONE], the TERMINAL_BW (3 h) is reported as 199.1 g, the APTT (3 h) is reported as 15.7 s and the Bas (3 h) is reported as 0%. For the same compound, the Eos (3 h) was 1%, the Fbg (3 h) was 223 mg/dL and the Hb (3 h) was 12.6 g/dL. For the same compound, the Ht (3 h) was 38.3%, the Lym (3 h) was 77.2% and the MCH (3 h) was 21.2 pg. It also gave an MCHC (3 h) of 33%, an MCV (3 h) of 64.3 fL and a Mono (3 h) of 7.2%. For the same compound, the Neu (3 h) was 14.6%, the PT (3 h) was 12.3 s and the Plat (3 h) was 119.4 x10_4/uL. The RBC (3 h) was 595.4 x10_4/ul, the Ret (3 h) was 8.6% and the WBC (3 h) was 104.4 x10_2/uL. It also gave an LIVER (3 h) of 9.3 g, an A/G (3 h) of 2.1 and an ALP (3 h) of 1388.6 IU/L. It also gave an ALT (3 h) of 39 IU/L, an AST (3 h) of 64.8 IU/L and a BUN (3 h) of 13.8 mg/dL. For the same compound, the CRE (3 h) was 0.4 mg/dL, the Ca (3 h) was 11.5 mg/dL and the Cl (3 h) was 103.8 meq/L. The DBIL (3 h) was 0.012 mg/dL, the GLC (3 h) was 189.2 mg/dL and the IP (3 h) was 8.4 mg/dL. For the same compound, the K (3 h) was 4.3 meq/L, the LDH (3 h) was 112.6 IU/L and the Na (3 h) was 140.6 meq/L. It also gave a PL (3 h) of 142.2 mg/dL, an RALB (3 h) of 3.7 g/dL and a TBIL (3 h) of 0.04 mg/dL. It also gave a TC (3 h) of 89.6 mg/dL, a TG (3 h) of 74.8 mg/dL and a TP (3 h) of 5.4 g/dL. For the same compound, the gamma-GTP (3 h) was 1 IU/L, the TERMINAL_BW (6 h) was 191.9 g and the APTT (6 h) was 17.5 s. The Bas (6 h) was 0%, the Eos (6 h) was 1% and the Fbg (6 h) was 227.6 mg/dL. For the same compound, the Hb (6 h) was 12.9 g/dL, the Ht (6 h) was 39.6% and the Lym (6 h) was 77.4%. The MCH (6 h) was 21 pg, the MCHC (6 h) was 32.8% and the MCV (6 h) was 64.1 fL. The Mono (6 h) was 4.2%, the Neu (6 h) was 17.8% and the PT (6 h) was 12.6 s. It also gave a Plat (6 h) of 127.8 x10_4/uL, an RBC (6 h) of 618.2 x10_4/ul and a Ret (6 h) of 8.4%. It also gave a WBC (6 h) of 86.8 x10_2/uL, an LIVER (6 h) of 8.4 g and an A/G (6 h) of 2.3. For the same compound, the ALP (6 h) was 1155.6 IU/L, the ALT (6 h) was 36.8 IU/L and the AST (6 h) was 67.6 IU/L. The BUN (6 h) was 10.6 mg/dL, the CRE (6 h) was 0.4 mg/dL and the Ca (6 h) was 11 mg/dL. For the same compound, the Cl (6 h) was 104.6 meq/L, the DBIL (6 h) was 0.01 mg/dL and the GLC (6 h) was 182.8 mg/dL. It also gave an IP (6 h) of 8.9 mg/dL, a K (6 h) of 4.3 meq/L and an LDH (6 h) of 86.6 IU/L. It also gave a Na (6 h) of 140 meq/L, a PL (6 h) of 133.4 mg/dL and an RALB (6 h) of 3.7 g/dL. It also gave a TBIL (6 h) of 0.046 mg/dL, a TC (6 h) of 82.2 mg/dL and a TG (6 h) of 48.6 mg/dL. It also gave a TP (6 h) of 5.4 g/dL, a gamma-GTP (6 h) of 1 IU/L and a TERMINAL_BW (9 h) of 190.6 g. It also gave an APTT (9 h) of 16.3 s, a Bas (9 h) of 0% and an Eos (9 h) of 1%. It also gave a Fbg (9 h) of 218.6 mg/dL, a Hb (9 h) of 12.9 g/dL and a Ht (9 h) of 39.5%. The Lym (9 h) was 66.8%, the MCH (9 h) was 21.2 pg and the MCHC (9 h) was 32.6%. It also gave an MCV (9 h) of 65.1 fL, a Mono (9 h) of 10.6% and a Neu (9 h) of 22.2%. It also gave a PT (9 h) of 12.3 s, a Plat (9 h) of 123.8 x10_4/uL and an RBC (9 h) of 606.2 x10_4/ul. It also gave a Ret (9 h) of 8.4%, a WBC (9 h) of 86.2 x10_2/uL and an LIVER (9 h) of 8.1 g. It also gave an A/G (9 h) of 2.4, an ALP (9 h) of 1273.6 IU/L and an ALT (9 h) of 29.2 IU/L. The AST (9 h) was 63 IU/L, the BUN (9 h) was 10.2 mg/dL and the CRE (9 h) was 0.3 mg/dL. The Ca (9 h) was 11.1 mg/dL, the Cl (9 h) was 104.6 meq/L and the DBIL (9 h) was 0.008 mg/dL. The GLC (9 h) was 183.4 mg/dL, the IP (9 h) was 10.2 mg/dL and the K (9 h) was 4.2 meq/L. It also gave an LDH (9 h) of 102.8 IU/L, a Na (9 h) of 139.4 meq/L and a PL (9 h) of 129.6 mg/dL. The RALB (9 h) was 3.8 g/dL, the TBIL (9 h) was 0.044 mg/dL and the TC (9 h) was 78 mg/dL. It also gave a TG (9 h) of 42.4 mg/dL, a TP (9 h) of 5.4 g/dL and a gamma-GTP (9 h) of 1 IU/L. For the same compound, the TERMINAL_BW (24 h) was 213.3 g, the APTT (24 h) was 15.6 s and the Bas (24 h) was 0%. For the same compound, the Eos (24 h) was 1%, the Fbg (24 h) was 208.6 mg/dL and the Hb (24 h) was 12.8 g/dL. The Ht (24 h) was 39%, the Lym (24 h) was 69% and the MCH (24 h) was 21.2 pg. For the same compound, the MCHC (24 h) was 32.8%, the MCV (24 h) was 64.7 fL and the Mono (24 h) was 10%. For the same compound, the Neu (24 h) was 19.8%, the PT (24 h) was 12 s and the Plat (24 h) was 123.2 x10_4/uL. It also gave an RBC (24 h) of 602.8 x10_4/ul, a Ret (24 h) of 8.5% and a WBC (24 h) of 98.2 x10_2/uL. It also gave an LIVER (24 h) of 10.5 g, an A/G (24 h) of 2.4 and an ALP (24 h) of 1417.6 IU/L. It also gave an ALT (24 h) of 40.4 IU/L, an AST (24 h) of 71 IU/L and a BUN (24 h) of 15.6 mg/dL. For the same compound, the CRE (24 h) was 0.4 mg/dL, the Ca (24 h) was 11.5 mg/dL and the Cl (24 h) was 103.2 meq/L. The DBIL (24 h) was 0.014 mg/dL, the GLC (24 h) was 187.2 mg/dL and the IP (24 h) was 7.7 mg/dL. For the same compound, the K (24 h) was 4.6 meq/L, the LDH (24 h) was 106.6 IU/L and the Na (24 h) was 139.4 meq/L. For the same compound, the PL (24 h) was 158.8 mg/dL, the RALB (24 h) was 3.9 g/dL and the TBIL (24 h) was 0.034 mg/dL. The TC (24 h) was 86.2 mg/dL, the TG (24 h) was 146.8 mg/dL and the TP (24 h) was 5.6 g/dL. The gamma-GTP (24 h) was 0.6 IU/L.
